How the values were obtained:
Assay type in all cases: cell-based
[1] = system: L428 Hodgkin lymphoma cells; assay: Cell proliferation on L428 cells (counted in Burker chamber); details: head says SRB, cells counted using a Burker chamber
Method: 3 × 10^3 Capan2 cells, 2 × 10^3 Saos cells and 8 × 10^3 L428 were plated to 96 well plates. Cells were treated with the compounds in the concentrations for 48 h. Then for Capan2 and Saos SRB assay was performed, L428 cells were counted using a Burker chamber. Data is represented as average ± SD, from three biological replicates; individual assays were performed in duplicates. Values were normalized for vehicle treated cells, absorbance for vehicle treated cells equals to 1. Normality was checked using the Shapiro-Wilk test. The Saos Os-7 dataset was normalized using the Box-Cox method, other datasets had normal distribution. Each complex was individually assessed for statistical significance using One-way ANOVA test followed by Dunnett’s post hoc test; all values were compared to the values of the lowest concentration. For better visibility the p values are presented in an excel sheet at https://figshare.com/s/2c942a812caea8869a67. Non-linear regression was performed on the Capan2 and Saos datasets.
Cells were seeded in 96 well plates the day before the assay. Cells were treated with the compounds for […]. Cells were counted using a Burker chamber. On each plate wells were designed to contain untreated cells. In calculations the readings for these wells was considered as 1 and all readings were expressed relative to these values.

[2] = system: cisplatin resistant A2780 cells; assay: SRB assay (48 h) on cisplatin-resistant A2780 cells; details: for IC50 / cisplatin resistant A2780 SRB Max. (maximal inhibition): cisplatin resistant A2780 cells, SRB, 48 h
Method: 6 × 10^3 cisplatin-resistant A2780 cells were plated to 96 well plates. Cells were treated with the compounds in the concentrations indicated for either 4 h for an MTT assay or for 48 h for an SRB assay. Data is represented as average ± SD, from three biological replicates; individual assays were performed in duplicates. Values were normalized for vehicle treated cells, absorbance for vehicle treated cells equals to 1. Each compound was assessed individually. Normality was assessed using the Shapiro-Wilk test. […] Statistical significance was assessed using One-way ANOVA test comparing all points to the smallest concentration. For better visibility the p values are presented in an excel sheet at https://figshare.com/s/2c942a812caea8869a67. Non-linear regression was performed on the results of the SRB assay datasets.
Cisplatin resistant cells underwent selection (1 µM cisplatin) once a week for 3 days before plating for any assay.
The assay was performed similar to ([Kovács et al., 2019]). Cells were seeded in 96 well plates the day before the assay. Cells were treated with the compounds for 48 h. Cells were fixed with 10% trichloroacetic acid (TCA). Fixed cells were washed in distilled water 3 times followed by staining with SRB (0.4 m/V% dissolved in 1% acetic acid) for 10 min. Stained cells were washed in 1% acetic acid 5 times; acetic acid was removed and cells were left to dry. Protein-bound SRB was released by adding 100 µl 10 mM Tris base. Plates were measured in a plate photometer (Thermo Scientific Multiscan GO spectrophotometer, Waltham, MA, United States) at 540 nm. On each plate wells were designed to contain vehicle-treated cells. In calculations the readings for these wells was considered as 1 and all readings were expressed relative to these values.
Statistical analysis was performed using 8.0.1 version of Graphpad Prism. Values were tested for normal distribution using the D’Agostino and Pearson normality test. When necessary, values were log normalized or were normalized using the Box-Cox normalization method ([Box and Cox, 1964]) as indicated in the figure captions.

[3] = system: A2780 ovarian cancer cells; assay: MTT reduction assay (rapid toxicity, 4 h) on A2780 cells; details: 4 h treatment
Method: First, we assessed a set of osmium complexes (similar to Ia [[Kacsir et al., 2022]) in Figure 1] and their sugar-derived ligands, in which the benzoyl protective groups on the carbohydrate moiety were replaced by aliphatic acyl groups of different chain length (straight chain C3-C7–CO). Osmium was selected as a central ion, since osmium complexes had the best biological activity in our previous studies ([Balázs et al., 2022]; [Kacsir et al., 2022]). These compounds were tested on A2780 ovarian cancer cells for toxicity and cytostasis. The therapy of ovarian cancer is centered around platinum compounds ([Brown et al., 2019]; [Sipos et al., 2021]), therefore, it was logical to use a cellular model of ovarian cancer for the initial testing of the compounds. Toxicity was assessed using the MTT assay that measures the activity of mitochondrial complex I. We chose 4 h long treatment as in an MTT assay this time point is suitable to detect rapid, direct toxicity. Cytostasis was assessed after 48 h of treatment using the SRB assay that assesses protein content that corresponds to cell count. The characteristics of the compounds are detailed in Table 2.
3 × 10^3 A2780 cells, were plated to 96 well plates. Cells were treated with the compounds in the concentrations indicated for either 4 h for an MTT assay or for 48 h for an SRB assay. Data is represented as average ± SD, from three biological replicates; individual assays were performed in duplicates. Values were normalized for vehicle treated cells, absorbance for vehicle treated cells equals to 1. […] Except for the Os-6 complex, Two-way ANOVA test was performed and all values were compared with each other (Tukey’s post hoc test). […] Non-linear regression was performed on the data.
3 × 10^3 A2780 cells, 2 × 10^3 ID8 cells and 4 × 10^3 primary fibroblasts were plated to 96 well plates. Cells were treated with the compounds in the concentrations indicated for either 4 h for an MTT assay or for 48 h for an SRB assay. Data is represented as average ± SD, from three biological replicates; individual assays were performed in duplicates. Values were normalized for vehicle treated cells, absorbance for vehicle treated cells equals to 1. Statistical significance was assessed using two-way ANOVA test comparing the free ligand and each complex as a complex-ligand pair. Before the test normality was assessed using the D’Agostino-Pearson test. The ID8 SRB Ir-7+L-7 dataset had lognormal distribution. […] All other datasets had normal distribution. For better visibility the p values are presented in an excel sheet at https://figshare.com/s/2c942a812caea8869a67. Non-linear regression was performed on the A2780 SRB and the ID8 SRB datasets.
MTT reduction assay measures the activity of mitochondrial complex I and can be used to detect toxicity ([Virág et al., 1998]; [Henslee et al., 2016]). The assay was performed similar to ([Bakondi et al., 2003]). Briefly, cells were plated in 96 well plates the day before the assay. Cells were treated with the compounds for 4 h, then MTT was added in 0.5 mg/ml final concentration and cells were incubated at 37°C in a cell incubator. Culture media was removed and the reduced MTT dye was dissolved in dimethyl-sulfoxide (DMSO) and plates were measured in a plate photometer (Thermo Scientific Multiscan GO spectrophotometer, Waltham, MA, United States) at 540 nm. On each plate wells were designed to contain untreated/vehicle-treated cells. In calculations the readings for these wells was considered as 1 and all readings were expressed relative to these values.

For `Cc1c(C)c(C)[c-](C)c1C.F[P-](F)(F)(F)(F)F.O=C(OCC1OC(n2cc(-c3ccc4ccccc4n3)nn2)C(OC(=O)c2ccccc2)C(OC(=O)c2ccccc2)C1OC(=O)c1ccccc1)c1ccccc1.[Cl][Ir+2]` (mixture of isomers) [Ir-7], the “L428 maximal inhibition (cell count)” value [1] was greater than 90%, the IC50 [2] was 1.54 µM and the “cisplatin resistant A2780 SRB Max. (maximal inhibition)” value [2] was greater than 90%. For the same compound, the “A2780 MTT Max. (maximal inhibition)” value [3] was 23.2%.

For `Cc1ccc(C(C)C)cc1.F[P-](F)(F)(F)(F)F.O=C(OCC1OC(n2cc(-c3ccc4ccccc4n3)nn2)C(OC(=O)c2ccccc2)C(OC(=O)c2ccccc2)C1OC(=O)c1ccccc1)c1ccccc1.[Cl][Os+]` (mixture of isomers) [Os-7], the “L428 maximal inhibition (cell count)” value [1] was greater than 90%, the “fold change of IC50, cisplatin resistant vs cisplatin sensitive A2780” value ([2]; SRB assays, resistant / sensitive A2780) was “technically unchanged” and the IC50 [2] was 0.476 µM. For the same compound, the “cisplatin resistant A2780 SRB Max. (maximal inhibition)” value [2] was greater than 90% and the “A2780 MTT Max. (maximal inhibition)” value [3] was 33.0%.

With `Cc1ccc(C(C)C)cc1.F[P-](F)(F)(F)(F)F.O=C(OCC1OC(n2cc(-c3ccc4ccccc4n3)nn2)C(OC(=O)c2ccccc2)C(OC(=O)c2ccccc2)C1OC(=O)c1ccccc1)c1ccccc1.[Cl][Ru+]` (mixture of isomers) [Ru-7] the “L428 maximal inhibition (cell count)” value [1] was 52.73%, the IC50 [2] was 1.18 µM and the “cisplatin resistant A2780 SRB Max. (maximal inhibition)” value [2] was greater than 90%. The “A2780 MTT Max. (maximal inhibition)” value [3] was 23.4%.
